Measured values reported in patent US20090005424A9, “Composition and Method for Treating Fibrotic Diseases” (priority 2005, published 2009).
Marks after values point to notes of the source that are not given here.

Assays:
Kidney Fibroblast = test: MTT proliferation assay, mouse kidney fibroblast; type: cell-based
Protocol: (§1) Cell proliferation was measured by MTT assay. DMEM with 10% fetal serum was used as cell culture medium. The cells were prepared in suspension (1×10^5/ml), and 100 μL of the suspension was transferred to each well of a 96 wells plate. Once the cells were attached to the plastic, the culture was changed to serum free medium and continued for another 24 hours. The serum free medium was aspirated, and various concentrations of 1-(3′-fluorophenyl)-5-methyl-2(1H)-pyridone (AKF-PD) 1-(3′-bromophenyl)-5-methyl-2(1H)-pyridone (AKF-BR) or PIRFENIDONE (PFD) in 10% serum medium were added into each well with 5 replicates for each concentration. The cells were stained with MTT (10 μL per well) at 24, 48, and 72 hours post drug treatment. After 4 hrs of incubation, the medium with MTT was aspirated from each well. One hundred μL MTT solvent was added to each well for 15 min. The dissolved MTT was then measured with a plate reader at 570 nm.

[1] = Acute oral toxicity in Kun Ming mice, LD50 by Bliss method; conditions: both sexes, Kun Ming (KM), mouse, in vivo, po
Protocol: Male and female Kun Ming (KM) mice weighing between 18 g-22 g were acquired from the animal facility of Hsiang-Ya Medical College, the Central South University. Fifty Kun Ming mice were randomly assigned into 5 groups with 5 male and 5 female mice for each group. The animals went through fasting with a normal water supply before starting drug treatment (either AKF-PD or PIRFENIDONE). The drug was administrated orally by gavage. The volume of liquid drug was 20 ml/kg body weight. The range of dosage for AKF-PD administrated was from 1071 mg/kg to 6000 mg/kg. The dosage difference between two adjacent doses was 1:0.65 (a dose vs the next lower dose). All animals were maintained under a regular condition. Acute toxic reaction and death within 14 days of post drug treatment were recorded. Autopsy was performed on all dead animals and visual examination was performed on all organs.
LD50 was calculated according to Bliss method. […] The results of Table 15 are very close to those reported in the literature: 997.7 mg/kg (U.S. Pat. No. 5,310,562) and 1112 mg/kg(Pharmaceutical Care and Research 5:4823(2005)).

[2] = system: Rat Pulmonary Fibroblasts; test: MTT proliferation assay, rat pulmonary fibroblasts; type: cell-based
Protocol: as §1, with “and incubated” for “and continued”, “hours. Then, the” for “hours. The”, “(AKF-PD) or 1-(3′-bromophenyl)-5-Methyl-2(1H)-Pyridone” for “(AKF-PD) 1-(3′-bromophenyl)-5-methyl-2(1H)-pyridone (AKF-BR)”, “24, or 48” for “24, 48, and 72”, “15 min, and the” for “15 min. The”, “was” for “was then”

[3] = system: Human Skin Scar Forming Fibroblasts; test: MTT proliferation assay, human skin scar forming fibroblasts; type: cell-based
Protocol: (§2) In the following examples, myocardiac fibroblasts, skin scar forming fibroblast and human peritoneal mesothelial cells are primary cultures prepared according to common procedure. Other cells are commercially purchased. 1-(3-fluorophenyl)-5-methyl-2(1H)-pyridone (AKF-PD) is prepared as a suspension in 5% carboxymethylcellulose.
(§3) Cell proliferation was measured by MTT assay. DMEM with 10% fetal serum was used as cell culture medium. The cells were prepared in suspension (1×10^5/ml), and 100 μL of the suspension was transferred to each well of a 96 wells plate. Once the cells were attached to the plastic, the culture was changed to serum free medium and incubated for another 24 hours. Then, the serum free medium was aspirated, and various concentrations of 1-(3′-fluorophenyl)-5-methyl-2(1H)-pyridone (AKF-PD) or PIRFENIDONE (PFD) in 10% serum medium were added into each well with 5 replicates for each concentration. The cells were stained with MTT (10 μL per well) at 12, 24, or 48 hours post drug treatment. After 4 hrs of incubation, the medium with MTT was aspirated from each well. One hundred μL MTT solvent was added to each well for 15 min, and the dissolved MTT was measured with a plate reader at 570 nm.

[4] = system: Rat Myocardiac Fibroblasts; test: MTT proliferation assay, rat myocardiac fibroblasts; type: cell-based
Protocol: as §2, §3

[5] = system: SD rat, renal interstitial fibrosis induced by surgical ligation of single side ureter; test: Rat ureter ligation model of renal interstitial fibrosis, AKF-PD vs PFD (Example 12); type: in vivo; conditions: ureter-ligated rats; PFD 500 mg/kg/d, AKF-PD 500 mg/kg/d by gavage; 14 days post surgery
Protocol: Anti-fibrotic effect of AKF-PD was tested on a SD rat model for renal interstitial fibrosis induced by surgical ligation of single side ureter. Male SD rats (180 g˜220 g) were randomly divided into disease model group, PFD (500 mg/kg/d) group and AKF-PD (500 mg/kg/d) group. […] The respective drugs were administrated by gavage to rats in the groups of PFD and AKF-PD from one day prior to the procedure to 14 days post surgical procedure. Normal saline was administrated in a similar fashion to the rats in the groups of disease model. The animals were sacrificed 14 days after surgical procedure and their kidney were removed for pathological (HE staining) examination.

## Cc1ccc(=O)n(-c2ccccc2)c1 [PFD, 5-methyl-1-phenyl-2(1H)-pyridone, reference compound]
Kidney Fibroblast; 100 μg/ml, 24 h
  Optical Density at 570 nm: 0.5911 ± 0.1002
Kidney Fibroblast; 100 μg/ml, 48 h
  Optical Density at 570 nm: 0.5844 ± 0.0171
Kidney Fibroblast; 100 μg/ml, 72 h
  Optical Density at 570 nm: 0.5264 ± 0.1530
Kidney Fibroblast; 500 μg/ml, 24 h
  Optical Density at 570 nm: 0.5877 ± 0.1204
Kidney Fibroblast; 500 μg/ml, 48 h
  Optical Density at 570 nm: 0.5450 ± 0.0196
Kidney Fibroblast; 500 μg/ml, 72 h
  Optical Density at 570 nm: 0.4798 ± 0.2355
Kidney Fibroblast; 1000 μg/ml, 24 h
  Optical Density at 570 nm: 0.5798 ± 0.0149
Kidney Fibroblast; 1000 μg/ml, 48 h
  Optical Density at 570 nm: 0.5272 ± 0.0229
Kidney Fibroblast; 1000 μg/ml, 72 h
  Optical Density at 570 nm: 0.4269 ± 0.0302
Kidney Fibroblast; kidney fibroblast
  order of inhibitory effect: AKF-PD>AKF-BR>pirfenidone
[1]; LD50
  LD50 at 14 days: 955 mg/kg
[1]; LD50 95% confidence limit
  LD50 at 14 days: 551 to 1660 mg/kg
[2]; 100 μg/ml, 24 h
  Optical Density at 570 nm: 0.2023 ± 0.0169
[2]; 100 μg/ml, 48 h
  Optical Density at 570 nm: 0.1864 ± 0.0530
[2]; 500 μg/ml, 24 h
  Optical Density at 570 nm: 0.1887 ± 0.0130
[2]; 500 μg/ml, 48 h
  Optical Density at 570 nm: 0.1459 ± 0.0255
[2]; 1000 μg/ml, 24 h
  Optical Density at 570 nm: 0.1797 ± 0.0166
[2]; 1000 μg/ml, 48 h
  Optical Density at 570 nm: 0.1269 ± 0.0302
[2]; rat pulmonary fibroblasts
  order of inhibitory effect: AKF-PD>AKF-BR>pirfenidone
[3]; 100 μg/ml, 12 h
  Optical Density at 570 nm: 0.194 ± 0.004
[3]; 100 μg/ml, 24 h
  Optical Density at 570 nm: 0.250 ± 0.003
[3]; 100 μg/ml, 48 h
  Optical Density at 570 nm: 0.366 ± 0.006
[3]; 500 μg/ml, 12 h
  Optical Density at 570 nm: 0.191 ± 0.008
[3]; 500 μg/ml, 24 h
  Optical Density at 570 nm: 0.245 ± 0.004*^+
[3]; 500 μg/ml, 48 h
  Optical Density at 570 nm: 0.350 ± 0.003***^++
[3]; 1000 μg/ml, 12 h
  Optical Density at 570 nm: 0.190 ± 0.008
[3]; 1000 μg/ml, 24 h
  Optical Density at 570 nm: 0.330 ± 0.001*^++
[3]; 1000 μg/ml, 48 h
  Optical Density at 570 nm: 0.328 ± 0.004***^++
[3]; 2500 μg/ml, 12 h
  Optical Density at 570 nm: 0.193 ± 0.004
[3]; 2500 μg/ml, 24 h
  Optical Density at 570 nm: 0.278 ± 0.001***^+++
[3]; 2500 μg/ml, 48 h
  Optical Density at 570 nm: 0.264 ± 0.005
[4]; 100 μg/ml, 12 h
  Optical Density at 570 nm: 0.330 ± 0.014
[4]; 100 μg/ml, 24 h
  Optical Density at 570 nm: 0.429 ± 0.009
[4]; 100 μg/ml, 48 h
  Optical Density at 570 nm: 0.654 ± 0.007*^+
[4]; 500 μg/ml, 12 h
  Optical Density at 570 nm: 0.329 ± 0.013
[4]; 500 μg/ml, 24 h
  Optical Density at 570 nm: 0.411 ± 0.006
[4]; 500 μg/ml, 48 h
  Optical Density at 570 nm: 0.612 ± 0.014***^++
[4]; 1000 μg/ml, 12 h
  Optical Density at 570 nm: 0.331 ± 0.009
[4]; 1000 μg/ml, 24 h
  Optical Density at 570 nm: 0.403 ± 0.010**^+
[4]; 1000 μg/ml, 48 h
  Optical Density at 570 nm: 0.597 ± 0.013***^+++
[4]; 2500 μg/ml, 12 h
  Optical Density at 570 nm: 0.329 ± 0.008
[4]; 2500 μg/ml, 24 h
  Optical Density at 570 nm: 0.392 ± 0.009**^+
[4]; 2500 μg/ml, 48 h
  Optical Density at 570 nm: 0.566 ± 0.027
[5]
  Histological Score for Interstitial Compartment: 8.06 ± 2.41
